pIC50: −log10 of the molar value.
Assays:
TIE-2 = TIE-2 (Homo sapiens, UniProt Q02763); experiment: Inhibition of TIE-2 (tyrosine kinase); type: biochemical; settings: read-out: Inhibition of TIE-2 expressed in IC50
Experimental: (§1) The 2-benzoylchromone derivatives were tested as tyrosine kinase inhibitors (see Table 1: Inhibition of TIE-2), but also as serine/threonine kinase inhibitors (see Table 1: PKB).

PKB = PKB (Homo sapiens, UniProt P31749); experiment: Inhibition of PKB (serine/threonine kinase); type: biochemical; settings: read-out: Inhibition of PKB expressed in IC50
Experimental: as §1

Chain of PKB (P31749 whole entry): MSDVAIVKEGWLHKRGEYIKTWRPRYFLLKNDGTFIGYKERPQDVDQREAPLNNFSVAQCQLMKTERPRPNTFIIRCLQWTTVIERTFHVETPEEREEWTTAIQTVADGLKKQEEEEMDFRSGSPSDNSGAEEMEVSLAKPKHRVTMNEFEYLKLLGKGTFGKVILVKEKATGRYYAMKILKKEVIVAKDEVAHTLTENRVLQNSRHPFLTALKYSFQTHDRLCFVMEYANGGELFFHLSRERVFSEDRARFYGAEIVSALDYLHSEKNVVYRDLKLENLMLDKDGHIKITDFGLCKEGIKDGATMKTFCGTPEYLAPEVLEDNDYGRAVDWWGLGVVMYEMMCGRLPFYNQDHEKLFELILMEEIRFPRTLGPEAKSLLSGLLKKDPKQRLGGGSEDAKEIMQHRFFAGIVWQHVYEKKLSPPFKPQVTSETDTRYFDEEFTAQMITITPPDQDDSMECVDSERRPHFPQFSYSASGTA
Chain of TIE-2 (Q02763 23-1124): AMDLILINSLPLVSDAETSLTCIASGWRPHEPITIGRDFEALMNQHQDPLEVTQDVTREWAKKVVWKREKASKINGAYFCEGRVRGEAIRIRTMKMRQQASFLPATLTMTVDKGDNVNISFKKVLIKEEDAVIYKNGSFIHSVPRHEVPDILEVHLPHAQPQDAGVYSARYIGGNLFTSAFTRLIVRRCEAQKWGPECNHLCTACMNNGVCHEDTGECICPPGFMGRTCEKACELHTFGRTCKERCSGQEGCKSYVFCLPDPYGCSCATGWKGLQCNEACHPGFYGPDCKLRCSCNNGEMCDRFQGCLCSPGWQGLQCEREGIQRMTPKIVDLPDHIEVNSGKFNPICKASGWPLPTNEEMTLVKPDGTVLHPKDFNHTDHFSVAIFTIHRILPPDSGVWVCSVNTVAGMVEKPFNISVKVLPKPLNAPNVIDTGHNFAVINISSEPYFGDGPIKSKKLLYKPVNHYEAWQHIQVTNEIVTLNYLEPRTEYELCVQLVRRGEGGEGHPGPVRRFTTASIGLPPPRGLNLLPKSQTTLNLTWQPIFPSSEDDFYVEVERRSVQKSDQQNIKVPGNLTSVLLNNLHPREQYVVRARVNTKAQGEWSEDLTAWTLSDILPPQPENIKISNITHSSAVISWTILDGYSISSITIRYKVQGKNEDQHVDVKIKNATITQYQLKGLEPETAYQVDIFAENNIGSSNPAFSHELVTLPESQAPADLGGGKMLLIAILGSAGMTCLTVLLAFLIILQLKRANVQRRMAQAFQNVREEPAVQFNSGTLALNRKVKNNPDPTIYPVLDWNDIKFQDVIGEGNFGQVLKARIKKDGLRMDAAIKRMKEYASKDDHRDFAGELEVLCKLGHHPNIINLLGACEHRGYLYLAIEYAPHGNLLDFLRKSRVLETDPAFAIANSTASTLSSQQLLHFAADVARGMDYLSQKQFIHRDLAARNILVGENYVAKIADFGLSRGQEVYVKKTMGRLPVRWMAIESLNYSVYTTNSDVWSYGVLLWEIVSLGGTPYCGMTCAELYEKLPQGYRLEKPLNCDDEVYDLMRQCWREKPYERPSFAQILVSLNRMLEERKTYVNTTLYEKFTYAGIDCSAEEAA

Row | pIC50 (TIE-2) | pIC50 (PKB) | SMILES
1 | < 5.00 | < 4.52 | O=C(c1cc(=O)c2c(O)cccc2o1)c1ccc(O)cc1O [5-hydroxy-2-(2′,4′-dihydroxybenzoyl)chromone]
2 | 5.44 | < 4.52 | O=C(c1cc(=O)c2cc3c(cc2o1)OCO3)c1cc2c(cc1O)OCO2 [6,7-methylenedioxy-2-(2′-hydroxy-4′,5′-methylenedioxybenzoyl)chromone]
3 | < 5.00 | < 4.52 | O=C(c1cc(=O)c2cc(O)ccc2o1)c1cc2c(cc1O)OCO2 [6-hydroxy-2-(2′-hydroxy-4′,5′-methylenedioxybenzoyl)chromone]

Source: patent US7307100B2, “2-Benzoylchromone derivatives” (Merck Patent GmbH, priority 2002, dated 2007)
